Data published in article PMC11208427, “Magnesium enhances aurintricarboxylic acid’s inhibitory action on the plasma membrane Ca^2+-ATPase” (Scientific Reports, 2024).

Target: T1, plasma membrane Ca2+-ATPase (PMCA), 90% PMCA4b (Homo sapiens, UniProt P23634)
T1 construct: gene ATP2B4
Experiment: fluorescence of ATA bound to purified PMCA and quenching of intrinsic Trp fluorescence; also Ca2+-ATPase inhibition (Ki […])
Assay type: binding

T1 sequence (P23634 1-1205 isoform P23634-6): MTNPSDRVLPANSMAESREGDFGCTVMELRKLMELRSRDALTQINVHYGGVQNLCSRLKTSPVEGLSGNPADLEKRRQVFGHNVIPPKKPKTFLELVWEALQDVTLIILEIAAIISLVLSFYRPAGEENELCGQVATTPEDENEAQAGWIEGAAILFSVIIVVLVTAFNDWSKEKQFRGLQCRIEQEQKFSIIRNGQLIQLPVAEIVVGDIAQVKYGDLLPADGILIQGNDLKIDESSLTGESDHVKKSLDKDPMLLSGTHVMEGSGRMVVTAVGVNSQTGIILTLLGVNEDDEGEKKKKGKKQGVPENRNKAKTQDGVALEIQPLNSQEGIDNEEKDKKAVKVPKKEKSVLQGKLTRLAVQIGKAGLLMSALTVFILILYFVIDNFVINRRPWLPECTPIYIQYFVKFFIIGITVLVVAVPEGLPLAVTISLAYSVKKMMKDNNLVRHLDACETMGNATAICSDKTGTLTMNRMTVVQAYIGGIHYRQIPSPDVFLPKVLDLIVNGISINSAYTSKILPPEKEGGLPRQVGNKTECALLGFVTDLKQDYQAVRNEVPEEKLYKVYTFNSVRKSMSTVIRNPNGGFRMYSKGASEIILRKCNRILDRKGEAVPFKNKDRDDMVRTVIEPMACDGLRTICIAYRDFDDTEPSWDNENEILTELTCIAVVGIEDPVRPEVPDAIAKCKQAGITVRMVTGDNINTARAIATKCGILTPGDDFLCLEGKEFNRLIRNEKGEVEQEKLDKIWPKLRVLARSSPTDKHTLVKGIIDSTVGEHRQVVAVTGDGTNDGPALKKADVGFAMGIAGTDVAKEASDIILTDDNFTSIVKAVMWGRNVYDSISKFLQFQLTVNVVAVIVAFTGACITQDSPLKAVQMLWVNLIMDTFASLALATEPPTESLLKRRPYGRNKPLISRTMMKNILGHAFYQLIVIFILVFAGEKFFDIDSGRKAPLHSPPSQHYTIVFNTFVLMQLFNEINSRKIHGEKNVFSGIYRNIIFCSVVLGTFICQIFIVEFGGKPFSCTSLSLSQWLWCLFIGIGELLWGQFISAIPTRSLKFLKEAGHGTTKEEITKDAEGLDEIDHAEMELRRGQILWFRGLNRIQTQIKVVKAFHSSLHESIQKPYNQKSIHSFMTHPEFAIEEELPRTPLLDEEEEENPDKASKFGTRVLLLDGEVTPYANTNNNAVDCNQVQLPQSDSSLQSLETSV

Kd: 160 nM
SMILES: O=C(O)C1=CC(=C(c2ccc(O)c(C(=O)O)c2)c2ccc(O)c(C(=O)O)c2)C=CC1=O [ATA, aurintricarboxylic acid]
